Some results are limits rather than exact numbers.

In one experiment the target is GCN2 kinase (Homo sapiens, UniProt Q9P2K8). As to the kind of experiment: GCN2 enzyme inhibition assay (Transcreener ADP2 fluorescence polarization). The experiment is classed as biochemical. As to conditions: Enzyme activity for compounds of Formula IV; Ki(app), 280 μM ATP, 25° C. An outline of the steps: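 Kinase activity is followed as ADP formation, measured by fluorescence polarization, using 4 nM enzyme with 280 μM ATP and 200 μM (RS)7 peptide at pH 7.5 and 25 °C for 1 h. Values come from a non-linear tight-binding fit.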
GCN2 kinase, sequence (Q9P2K8 whole entry): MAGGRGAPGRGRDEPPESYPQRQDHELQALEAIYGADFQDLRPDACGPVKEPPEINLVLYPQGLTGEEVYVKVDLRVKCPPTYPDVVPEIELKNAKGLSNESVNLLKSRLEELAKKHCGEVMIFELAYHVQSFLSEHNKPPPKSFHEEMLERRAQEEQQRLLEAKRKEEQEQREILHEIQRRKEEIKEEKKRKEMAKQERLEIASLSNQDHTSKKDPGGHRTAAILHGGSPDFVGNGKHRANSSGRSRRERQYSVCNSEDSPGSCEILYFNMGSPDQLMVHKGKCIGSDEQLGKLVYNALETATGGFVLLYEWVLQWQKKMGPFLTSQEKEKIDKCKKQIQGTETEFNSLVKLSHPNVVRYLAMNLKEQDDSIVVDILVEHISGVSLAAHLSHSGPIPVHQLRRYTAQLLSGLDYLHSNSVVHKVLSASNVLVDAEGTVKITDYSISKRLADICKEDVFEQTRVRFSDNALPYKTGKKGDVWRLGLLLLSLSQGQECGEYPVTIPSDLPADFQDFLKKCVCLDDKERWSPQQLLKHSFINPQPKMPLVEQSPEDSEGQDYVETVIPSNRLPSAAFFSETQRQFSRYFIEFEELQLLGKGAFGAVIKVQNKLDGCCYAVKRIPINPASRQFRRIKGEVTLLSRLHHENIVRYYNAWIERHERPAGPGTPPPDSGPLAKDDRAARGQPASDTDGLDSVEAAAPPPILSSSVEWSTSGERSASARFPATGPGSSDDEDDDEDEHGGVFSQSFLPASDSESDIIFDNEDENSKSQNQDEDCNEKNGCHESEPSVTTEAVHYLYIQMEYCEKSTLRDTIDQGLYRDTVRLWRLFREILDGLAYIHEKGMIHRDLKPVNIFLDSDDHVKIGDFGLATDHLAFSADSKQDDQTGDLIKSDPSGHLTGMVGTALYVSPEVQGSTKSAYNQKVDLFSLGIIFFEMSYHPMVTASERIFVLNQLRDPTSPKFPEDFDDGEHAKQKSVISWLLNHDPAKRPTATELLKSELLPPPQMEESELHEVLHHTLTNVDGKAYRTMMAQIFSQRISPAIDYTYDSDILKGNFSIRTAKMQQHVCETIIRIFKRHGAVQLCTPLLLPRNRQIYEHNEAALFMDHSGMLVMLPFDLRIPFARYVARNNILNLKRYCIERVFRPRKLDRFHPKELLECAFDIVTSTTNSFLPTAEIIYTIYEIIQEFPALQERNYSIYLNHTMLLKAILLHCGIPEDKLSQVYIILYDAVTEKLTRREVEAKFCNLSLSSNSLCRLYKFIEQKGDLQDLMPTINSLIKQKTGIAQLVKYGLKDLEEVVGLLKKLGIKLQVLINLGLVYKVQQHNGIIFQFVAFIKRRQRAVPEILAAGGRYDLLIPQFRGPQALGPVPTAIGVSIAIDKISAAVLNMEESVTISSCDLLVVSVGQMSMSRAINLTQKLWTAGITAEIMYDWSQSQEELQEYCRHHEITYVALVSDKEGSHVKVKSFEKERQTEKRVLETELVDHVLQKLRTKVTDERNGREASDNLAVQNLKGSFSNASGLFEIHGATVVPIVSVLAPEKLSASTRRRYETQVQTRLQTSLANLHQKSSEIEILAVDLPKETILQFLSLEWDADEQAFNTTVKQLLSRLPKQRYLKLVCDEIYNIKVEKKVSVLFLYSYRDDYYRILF
On to `CC1CN(c2ccnc(-c3cnc4cnc(C#N)cn34)n2)C(C)C(c2cn[nH]c2)N1` (single isomer, unassigned) [IV-313, 3-(4-(2,5-Dimethyl-3-(1H-pyrazol-4-yl)piperazin-1-yl)pyrimidin-2-yl)imidazo[1,2-a]pyrazine-6-carbonitrile], for which the Ki was in the range of 0.1 to 1 µM.

Compound `FC(F)(F)c1cn2c(-c3nccc(N4CCC(c5cn[nH]c5)C4)n3)cnc2cn1` (single isomer, unassigned) [IV-541, 3-(4-(3-(1H-Pyrazol-4-yl)pyrrolidin-1-yl)pyrimidin-2-yl)-6-(trifluoromethyl)imidazo[1,2-a]pyrazine] yielded a Ki of 0.01 to 0.1 µM.

Compound `FC(F)(F)c1cn2c(-c3nccc(N4CCC(C5CCOCC5)C4)n3)cnc2cn1` (centres unmarked) [IV-507, 3-(4-(3-(Tetrahydro-2H-pyran-4-yl)pyrrolidin-1-yl)pyrimidin-2-yl)-6-(trifluoromethyl)imidazo[1,2-a]pyrazine] gave a Ki of 0.1 to 1 µM.

In turn, `N#CC1CCCN(c2ccnc(-c3cnc4cnc(C(F)(F)F)cn34)n2)C1` (centres unmarked) [IV-516, 1-(2-(6-(Trifluoromethyl)imidazo[1,2-a]pyrazin-3-yl)pyrimidin-4-yl)piperidine-3-carbonitrile] came in with a Ki of 0.1 to 1 µM.

Regarding `FC(F)(F)c1cn2c(-c3nccc(N4CCc5sccc5C4)n3)cnc2cn1` [IV-749], the Ki is more than 1 µM. Same read-out and setting: the figure for `c1cc(-c2ccc3cc[nH]c3c2)nc(-c2cnc3cnccn23)c1` [IV-1, 3-(6-(1H-Indol-6-yl)pyridin-2-yl)imidazo[1,2-a]pyrazine] is 0.1 to 1 µM; for `NC(=O)CC1CCN(c2ccnc(-c3cnc4cnc(C(F)(F)F)cn34)n2)C1` (centres unmarked) [IV-432, 2-(1-(2-(6-(Trifluoromethyl)imidazo[1,2-a]pyrazin-3-yl)pyrimidin-4-yl)pyrrolidin-3-yl)acetamide] it is 0.1 to 1 µM. In turn, `FC(F)(F)c1cn2c(-c3nccc(N4CCCC(c5ccno5)C4)n3)cnc2cn1` (centres unmarked) [IV-317, 5-(1-(2-(6-(Trifluoromethyl)imidazo[1,2-a]pyrazin-3-yl)pyrimidin-4-yl)piperidin-3-yl)isoxazole] registered a Ki of 0.01 to 0.1 µM. As for `CCOc1cccc(-c2cn3c(-c4nccc(N5CCN(C(C)=O)CC5)n4)cnc3cn2)c1` [IV-299, 1-(4-(2-(6-(3-Ethoxyphenyl)imidazo[1,2-a]pyrazin-3-yl)pyrimidin-4-yl)piperazin-1-yl)ethan-1-one], the Ki fell in the range of 0.01 to 0.1 µM.

For `CC1CC(CS(C)(=N)=O)C(C)N(c2ccnc(-c3cnc4cnc(C(F)F)cn34)n2)C1` (single isomer, unassigned) [IV-367, ((1-(2-(6-(Difluoromethyl)imidazo[1,2-a]pyrazin-3-yl)pyrimidin-4-yl)-2,5-dimethylpiperidin-3-yl)methyl)(imino)(methyl)-λ^6-sulfanone], the Ki was 0.1 to 1 µM.

Staying with this experiment, now noted: compounds of Formula II; 280 μM ATP, 4 nM GCN2 kinase.
With `CS(=N)(=O)c1cccc(-c2cc(-c3cnc4ccc(C(F)F)nn34)ncn2)c1` (centres unmarked) [II-580, (3-(6-(6-(Difluoromethyl)imidazo[1,2-b]pyridazin-3-yl)pyrimidin-4-yl)phenyl)(imino)(methyl)-λ^6-sulfanone], the Ki fell in the range of 0.01 to 1 µM. `CNS(=O)(=O)CC1CCCN(c2cc(-c3cnc4ccc(C(F)F)nn34)ncn2)C1` (centres unmarked) [II-236, 1-(1-(6-(6-(Difluoromethyl)imidazo[1,2-b]pyridazin-3-yl)pyrimidin-4-yl)piperidin-3-yl)-N-methylmethanesulfonamide] yielded a Ki of 0.01 to 1 µM. Same read-out and setting: the value for `CS(=N)(=O)NC[C@@H]1CN(c2cc(-c3cnc4ccc(C(F)F)nn34)ncn2)CCO1` (stereo partly drawn) [II-23, N—(((S)-4-(6-(6-(Difluoromethyl)imidazo[1,2-b]pyridazin-3-yl)pyrimidin-4-yl)morpholin-2-yl)methyl)methanesulfonimidamide] was 0.01 to 1 µM.

Still in this experiment, the particulars now being: compounds of Formula III; 280 μM ATP, 4 nM GCN2 kinase.
In the case of `CC1C(CNS(C)(=O)=O)C(F)(F)C(C)CN1c1cc(-c2cnn3ccc(C(F)F)nc23)ncn1` (centres unmarked) [III-13, N-[[1-[6-[5-(Difluoromethyl)pyrazolo[1,5-a]pyrimidin-3-yl]pyrimidin-4-yl]-4,4-difluoro-2,5-dimethyl-3-piperidyl]methyl]methanesulfonamide], the Ki is less than 0.01 µM.

(Values after US10988477B2 (Merck Patent GmbH, priority 2018, dated 2021).)
